From patent US11453697B1, “Cyclic di-nucleotide compounds as sting agonists” (Merck Sharp & Dohme Corp., priority 2015, dated 2022) come the findings set out here.

In test [1] the target is full-length HAQ STING (Homo sapiens (Human), UniProt Q86WV6, G230A/H232R/R293Q/R71H). The test can be described thus: 3H-cGAMP filtration binding assay (HAQ STING). Conditions: competition with tritiated cGAMP, HAQ STING membrane; read-out: EC50 (nM), 3H-cGAMP filtration binding assay for HAQ STING. From the text:
The ability of compounds to bind STING is quantified by the ability to compete with tritiated cGAMP ligand for human STING receptor membrane using a radioactive filter-binding assay. The binding assay employs STING receptor obtained from Hi-Five cell membranes overexpressing full-length HAQ STING prepared in-house and tritiated cGAMP ligand also purified in-house.
The ability of compounds to bind STING is quantified by their ability to compete with tritiated cGAMP ligand for human STING receptor membrane using a radioactive filter-binding assay.
The basic HAQ STING filtration assay protocol is as follows:
Compound and membrane then preincubated for 60 min at RT to allow compound binding to equilibrate. Following equilibration, 8 nM of [^3H] c-GAMP ligand was prepared by diluting into assay buffer, and 50 uL of this working stock was then manually added to each well of the assay plate. […] The filter plates were then dried at 55° C. for 30 min using a pressurized VWR oven before 30 uL of Ultima GoldF scintillate was added to each well. Tritium levels for each reaction well were then measured using a PerkinElmer TopCount plate reader.
After normalization to controls, the percent activity for each compound concentration was calculated by measuring the amount of remaining radioactivity. The plot of percent activity versus the log of compound concentration was fit with a 4-parameter dose response equation to calculate EC50 values.

Test [2] deals with IFN-β secretion in THP1 cells. The test can be described thus: IFN-β secretion in THP1 cell culture (5 h). The conditions noted are these: IFN-β secretion in THP1 cell culture, 5 h; compound at 30 μM; percent activation relative to 2′3′-cGAMP. The test is classed as cell-based, human. The method in brief:
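THP1 cells incubated with compound for 5 h at 37 °C, 5% CO2, and secreted IFN-β in supernatant quantified by AlphaLISA. Percent effect normalised to 30 uM cGAMP positive control and 0.3% DMSO. EC50 from 4-parameter fit.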

SMILES strings stand for the structures.

Chain of full-length HAQ STING (Q86WV6 other isoform, or with tags, fused parts or gaps, stated change not applied): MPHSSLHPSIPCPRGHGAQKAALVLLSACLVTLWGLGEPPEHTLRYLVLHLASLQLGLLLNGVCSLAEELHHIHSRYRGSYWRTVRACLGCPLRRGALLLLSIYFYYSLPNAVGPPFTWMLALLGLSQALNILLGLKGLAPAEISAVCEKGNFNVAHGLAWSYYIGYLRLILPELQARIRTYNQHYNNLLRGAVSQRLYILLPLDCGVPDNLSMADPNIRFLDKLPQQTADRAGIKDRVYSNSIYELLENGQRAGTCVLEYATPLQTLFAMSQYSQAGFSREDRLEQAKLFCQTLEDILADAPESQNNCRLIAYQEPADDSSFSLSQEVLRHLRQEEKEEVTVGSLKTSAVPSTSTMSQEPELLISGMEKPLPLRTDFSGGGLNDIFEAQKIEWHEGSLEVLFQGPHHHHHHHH

With `Nc1nc2c(ncn2[C@@H]2O[C@@H]3COP(=O)(O)O[C@H]4C[C@H](n5cnc6c(=O)[nH]cnc65)O[C@@H]4COP(=O)(O)O[C@@H]2[C@@H]3F)c(=O)[nH]1` [Example 332, 2-amino-9-[(5R,7R,8S,12aR,14R,15aS,16R)-16-fluoro-2,10-dihydroxy-2,10-dioxido-14-(6-oxo-1,6-dihydro-9H-purin-9-yl)octahydro-12H-5,8-methanofuro[3,2-l][1,3,6,9,11,2,10]pentaoxadiphosphacy-clotetradecin-7-yl]-1,9-dihydro-6H-purin-6-one], in test [1], the EC50 was found to be 8.2 nM. Further, in test [2], the “% Effect at 30 μM relative to 2′3′-cGAMP” value is given as 113%.
For `C[C@@H]1OP(=O)(O)O[C@@H]2C[C@@H](COP(=O)(O)O[C@H]3[C@@H](O)[C@H](n4cnc5c(N)ncnc54)O[C@H]31)O[C@H]2n1cnc2c(=O)[nH]c(N)nc21` [Example 18, 2-amino-9-[(5S,7R,8R,12S,12aS,14R,15R,15aS)-14-(6-amino-9H-purin-9-yl)-2,10,15-trihydroxy-12-methyl-2,10-dioxidooctahydro-12H-5,8-methanofuro[3,2-l][1,3,6,9,11,2,10]pentaoxadiphosphacyclotetradecin-7-yl]-1,9-dihydro-6H-purin-6-one] the same measures were 53.9 nM and 74%.
For `Nc1nc2c(ncn2[C@@H]2O[C@@H]3COP(=O)(O)O[C@H]4[C@@H](F)[C@H](n5cnc6c(=O)[nH]cnc65)O[C@@H]4COP(=O)(O)O[C@@H]2[C@@H]3F)c(=O)[nH]1` [Example 314, 2-amino-9-[(5R,7R,8S,12aR,14R,15R,15aR,16R)-15,16-difluoro-2,10-dihydroxy-2,10-dioxido-14-(6-oxo-1,6-dihydro-9H-purin-9-yl)octahydro-12H-5,8-methanofuro [3,2-l][1,3,6,9,11,2,10]pentaoxadiphosphacyclotetradecin-7-yl]-1,9-dihydro-6H-purin-6-one] the same measures were less than 1 nM and 143%.
For `NC(=O)c1ncnc2c1ncn2[C@@H]1O[C@@H]2COP(=O)(O)O[C@@H]3[C@H](O)[C@@H](COP(=O)(O)O[C@H]2[C@H]1O)O[C@H]3n1cnc2c(=O)[nH]c(N)nc21` [Example 76, 9-[(5R,7R,8R,12aR,14R,15R,15aS,16R)-7-(2-amino-6-oxo-1,6-dihydro-9H-purin-9-yl)-2,10,15,16-tetrahydroxy-2,10-dioxidooctahydro-12H-5,8-methanofuro[3,2-l][1,3,6,9,11,2,10]pentaoxadiphosphacyclotetradecin-14-yl]-9H-purine-6-carboxamide], in that order: 75.4 nM and 39%.
`Nc1nc2c(ncn2[C@@H]2O[C@@H]3COP(=O)(O)O[C@H]4[C@H](F)[C@H](n5cnc6c(=O)[nH]cnc65)O[C@@H]4COP(=O)(O)O[C@@H]2C3)c(=O)[nH]1` [Example 312, 2-amino-9-[(5S,7R,8R,12aR,14R,15S,15aR)-15-fluoro-2,10-dihydroxy-2,10-dioxido-14-(6-oxo-1,6-dihydro-9H-purin-9-yl)octahydro-12H-5,8-methanofuro[3,2-l] [1,3,6,9,11,2,10]pentaoxadiphosphacyclo-tetradecin-7-yl]-1,9-dihydro-6H-purin-6-one]: the EC50 in test [1] was found to be 122 nM. The “% Effect at 30 μM relative to 2′3′-cGAMP” value in test [2] was determined as 90%.
For `Nc1nc2c(ncn2[C@@H]2O[C@@H]3COP(=O)(S)O[C@H]4[C@H](F)[C@H](n5cnc6c(=O)[nH]cnc65)O[C@@H]4COP(=O)(S)O[C@@H]2C3)c(=O)[nH]1` (single isomer, unassigned) [Example 318], in that order: 6.2 nM and 150%.
For `CO[C@H]1[C@H]2OP(=O)(O)OC[C@H]3O[C@@H](n4cnc5c(O)ncnc54)[C@H](O)[C@@H]3OP(=O)(O)OC[C@H]1O[C@H]2n1cnc2c(=O)[nH]c(N)nc21` [Example 301, 2-amino-9-[(5R,7R,8R,12aR,14R,15R,15aS,16R)-2,10,15-trihydroxy-14-(6-hydroxy-9H-purin-9-yl)-16-methoxy-2,10-dioxidooctahydro-12H-5,8-methanofuro[3,2-l][1,3,6,9,11,2,10]pentaoxadiphosphacyclotetradecin-7-yl]-1,9-dihydro-6H-purin-6-one], the EC50 in test [1] worked out at 4.8 nM. The “% Effect at 30 μM relative to 2′3′-cGAMP” value in test [2] was 107%.
For `NC[C@H]1[C@H]2OP(=O)(O)OC[C@H]3O[C@@H](n4cnc5c(N)ncnc54)[C@H](O)[C@@H]3OP(=O)(O)OC[C@H]1O[C@H]2n1cnc2c(=O)[nH]c(N)nc21` [Example 36, 2-amino-9-[(5S,7R,8R,12aR,14R,15R,15aS,16R)-16-(aminomethyl)-14-(6-amino-9H-purin-9-yl)-2,10,15-trihydroxy-2,10-dioxidooctahydro-12H-5,8-methanofuro[3,2-l][1,3,6,9,11,2,10]pentaoxadiphosphacyclotetradecin-7-yl]-1,9-dihydro-6H-purin-6-one], in that order: 21.5 nM and 120%.
For `Nc1nc2c(ncn2[C@@H]2O[C@@H]3COP(=O)(O)O[C@H]4C[C@H](n5cnc6c(=O)[nH]cnc65)O[C@@H]4COP(=O)(O)O[C@@H]2C3)c(=O)[nH]1` [Example 313, 2-amino-9-[(5S,7R,8R,12aR,14R,15aS)-2,10-dihydroxy-2,10-dioxido-14-(6-oxo-1,6-dihydro-9H-purin-9-yl)octahydro-12H-5,8-methanofuro[3,2-l] [1,3,6,9,11,2,10]pentaoxadiphosphacyclo-tetradecin-7-yl]-1,9-dihydro-6H-purin-6-one], in that order: 211 nM and 117%.
For `O=c1[nH]cnc2c1ncn2[C@@H]1O[C@@H]2COP(=O)(O)O[C@@H]3C[C@@H](COP(=O)(O)O[C@H]2[C@H]1O)O[C@H]3n1cnc2c(=O)[nH]cnc21` [Example 333], in that order: 45.9 nM and 10%.
Take `Nc1nc2c(ncn2[C@@H]2O[C@@H]3COP(=O)(S)O[C@H]4[C@H](F)[C@H](n5nnc6c(=O)[nH]cnc65)O[C@@H]4COP(=O)(S)O[C@@H]2C3)c(=O)[nH]1` (stereo partly drawn) [Example 320, 3-[(5S,7R,8R,12aR,14R,15S,15aR)-7-(2-amino-6-oxo-1,6-dihydro-9H-purin-9-yl)-15-fluoro-2,10-dioxido-2,10-disulfanyloctahydro-12H-5,8-methanofuro[3,2-l][1,3,6,9,11,2,10]pentaoxadiphosphacyclotetradecin-14-yl]-3,6-dihydro-7H-[1,2,3]triazolo[4,5-d]pyrimidin-7-one]: the EC50 in test [1] came to 6.3 nM. The “% Effect at 30 μM relative to 2′3′-cGAMP” value in test [2] is on record as 115%.
`Nc1nc2c(ncn2[C@@H]2O[C@@H]3COP(=O)(O)O[C@H]4[C@@H](O)[C@H](n5cc(F)c6c(N)ncnc65)O[C@@H]4COP(=O)(O)O[C@@H]2[C@@H]3O)c(=O)[nH]1` [Example 33, 2-amino-9-[(5R,7R,8R,12aR,14R,15R,15aS,16R)-14-(4-amino-5-fluoro-7H-pyrrolo[2,3-d]pyrimidin-7-yl)-2,10,15,16-tetrahydroxy-2,10-dioxidooctahydro-12H-5,8-methanofuro[3,2-l][1,3,6,9,11,2,10]pentaoxadiphosphacyclotetradecin-7-yl]-1,9-dihydro-6H-purin-6-one]: the EC50 in test [1] was 11.9 nM. Besides, in test [2], the “% Effect at 30 μM relative to 2′3′-cGAMP” value worked out at 200%.
For `Nc1ncnc2c1ncn2[C@@H]1O[C@@H]2COP(=O)(O)O[C@H]3C[C@H](n4cnc5c(=O)[nH]cnc54)O[C@@H]3COP(=O)(O)O[C@@H]1[C@@H]2O` [Example 291, 9-[(5R,7R,8R,12aR,14R,15aS,16R)-7-(6-amino-9H-purin-9-yl)-2,10,16-trihydroxy-2,10-dioxidooctahydro-12H-5,8-methanofuro[3,2-l][1,3,6,9,11,2,10]pentaoxadiphosphacyclotetradecin-14-yl]-1,9-dihydro-6H-purin-6-one], in that order: 64.7 nM and 98%.
For the compound `Nc1nc2c(ncn2[C@@H]2O[C@@H]3COP(=O)(O)O[C@H]4[C@@H](F)[C@H](n5cnc6c(=O)[nH]cnc65)O[C@@H]4COP(=O)(O)O[C@@H]2[C@@H]3O)c(=O)[nH]1` [Example 293, 2-amino-9-[(5R,7R,8R,12aR,14R,15R,15aR,16R)-15-fluoro-2,10,16-trihydroxy-2,10-dioxido-14-(6-oxo-1,6-dihydro-9H-purin-9-yl)octahydro-12H-5,8-methanofuro[3,2-l] [1,3,6,9,11,2,10]pentaoxadiphosphacyclo-tetradecin-7-yl]-1,9-dihydro-6H-purin-6-one], the EC50 in test [1] turned out to be 1.9 nM. The “% Effect at 30 μM relative to 2′3′-cGAMP” value in test [2] is 86%.
